Reference: patent US10195216B1, “Antimicrobial activity and oil compositions of Costus speciosus (KOEN)” (King Abdulaziz University, priority 2017, dated 2019)

Key:
C. albicans = experiment: agar disc diffusion, inhibition zone; type: cell-based, Candida albicans; settings: same extract concentrations
Method: (§1) M. gypseum, M. canis, C. albicans and C. tropicalis isolates were obtained from King Faisal Specialist Hospital & Research Centre-Jeddah, Saudi Arabia. They were cultured on sabaroud dextrose agar media (Oxoid CM 41) at 25° C. Antimicrobial activities of essential oils and plant extracts of Indian Costus. About 0.5 g of the testing compound was dissolved in 1.25 ml of a solvent (chloroform, ethanol and methanol) and it was cultured in sabaroud dextrose agar media and blood agar media using the agar disc diffusion method. Each media used were inoculated with 1 ml from a suspension of M. gypseum, M. canis and C. albicans for sabaroud dextrose agar and P. aeruginosa and S. aureus for blood agar. The fungi and yeast were incubated at 25° C. for 8 days, and 48 hours respectively and then tested at 37° C. for 24 hours. After that, the diameter of inhibition zones was measured in millimeters; Baker F J, Breach M R. Medical Microbiological Techniques, Butterworths 1980; Hasenekoglu H. Laboratory techniques for micro fungi. Ataturk University. Erzurum 1990 (both incorporated by reference).

C. tropicalis = experiment: agar disc diffusion, inhibition zone; type: cell-based, Candida tropicalis; settings: same extract concentrations
Method: as §1

M. gypseum = experiment: agar disc diffusion, inhibition zone; type: cell-based, Microsporum gypseum; settings: diosgenin at 1.25 m
Method: as §1

Row | SMILES | antimicrobial activity in words (C. albicans) | antimicrobial activity in words (C. tropicalis) | antimicrobial activity in words (M. gypseum) | melting point [°C]
1 | C[C@@H]1CC[C@@]2(OC1)O[C@H]1C[C@H]3[C@@H]4CC=C5C[C@@H](O)CC[C@]5(C)[C@H]4CC[C@]3(C)[C@H]1[C@@H]2C [Indian Costus diosgenin, (3β,25R)-spirost-5-en-3-ol] | not as effective | not as effective | effective | 
2 | CC1CC[C@@]2(OC1)O[C@H]1C[C@H]3[C@@H]4CC5OC56CCCC[C@]6(C)[C@H]4CC[C@]3(C)[C@H]1[C@@H]2C (stereo partly shown) [diosgenin epoxide, 5,6-Epoxyspirostane] |  |  |  | 195 to 200
